How the values were obtained:
Type in all cases: cell-based, human
[1] = system: stress granules (FUS, eIF3, G3BP1) in HeLa Kyoto, HeLa BAC FUS-GFP and iPS FUS-GFP cells; assay: Screen for compounds altering FUS, eIF3 and G3BP1 levels in stress granules of arsenate-stressed cells (Example 1); conditions: compound 1 μM, 5 μM or 25 μM for one hour, then 2 mM Potassium Arsenate 1 hour; confocal fluorescence imaging; FIGS. 1-4
Excerpt: Stress granules are condensates that form in the cytoplasm of cells under stress. Multiple proteins are known to be concentrated in stress granules, including FUS, eukaryotic initiation factor 3 (eIF3), and G3BP1. FUS is involved in pre-mRNA maturation, and various mutations in FUS have been associated with ALS. Although FUS is found in stress granules, it is not believed to be critical for formation of stress granules. Like FUS, eIF3 is also not believed to be critical for formation of stress granules. As the name indicates, eIF3 is a eukaryotic initiation factor, but it is also involved in translational recycling. By contrast, G3BP1 is believed to initiate formation of stress granules and is potentially critical to maintaining their structure. G3BP1 is an RNA binding protein and an element of the Ras signaling transduction pathway. These three proteins were tracked within cells to determine if compounds could preferentially exclude one of these proteins from stress granules without dissolving the stress granule.
(§1) Three cell lines (HeLa Kyoto, HeLa comprising a bacterial artificial chromosome (BAC) encoding FUS-GFP, and induced pluripotent stem cells (iPS) expressing FUS-GFP) were separately grown in culture. 1200 compounds from a compound library were exposed individually at concentrations of 1 μM, 5 μM, or 25 μM to one of the cell lines for one hour. For some compounds, this procedure was repeated for one or both of the other cell lines. Cells that were not exposed to the compounds (DMSO-only vehicle treatment) were used as controls. The cells were then exposed to arsenate stress for 1 hour to stimulate the formation of stress granules, using a final concentration of 2 mM Potassium Arsenate (Sigma A6631, diluted in PBS).
(§2) After stress treatment, the cells were fixed with a final concentration of 3.7% Formaldehyde (FA) for 15 minutes at room temperature. Subsequently, cells were washed using a plate washer, permeabilized (10 min at RT using 0.1% Triton X/PBS) and blocked (30 min with 0.2% Fish skin gelatin/PBS). For cells expressing FUS-GFP, GFP fluorescence was observed directly. For the other protein markers of interest a combination of anti-FUS (Sigma AMAb90549; 1:500), anti-eIF3 (Santa Cruz sc-137214; 1:500), and anti-G3BP1 (Invitrogen PA5-29455; 1:4000) antibodies and appropriate secondary antibodies (Life Technologies; Alexa 594 and 647) was applied to visualize FUS, eIF3, and G3BP1 protein in the cells.
(§3) A spinning disk confocal microscope was used to acquire images of the samples using confocal fluorescence at 405/488/561/640 nm. 40× air objective lenses were used to capture the images. The gain was set to 1.4 and binning to 1. The exposure times were adjusted to the fluorescence emission intensity specific for each label. Exposure times ranged from 100-300 ms. Appropriate filter settings were used, matching the excitation and emission spectra of the label. Image acquisition was automated, and the resulting data were analyzed using KNIME (Berthold et al., 2008, Data Analysis, Machine Learning and Applications. Studies in Classification, Data Analysis, and Knowledge Organization. Springer, Berlin, Heidelberg) and CellProfiler (Carpenter et al., 2006, Genome Biol 7:R100). Twenty-five imaging parameters were extracted for each image, including marker signal droplet count, area, shape, etc. For each imaging parameter, the Z′ factor for the entire plate was calculated according to the following formula: Z′=1−[3*(SD(pos)+SD(neg))/(Avg(pos)−Avg(neg))] where SD(pos) is the standard deviation of the positive control, SD(neg) is the standard deviation of the negative control, Avg(pos) is the average of the positive control and Avg(neg) is the average of the negative control.
In addition, z-scores were calculated for every test compound using the formula: z=(x−x)/S where x is the mean of the sample, and S is the standard deviation of the sample. […] Results

[2] = system: stress granules (FUS, eIF3, G3BP1) in HeLa Kyoto, HeLa BAC FUS-GFP and iPS FUS-GFP cells; assay: Screen for macromolecule and tissue specificity on stress granules of arsenate-stressed cells (Example 2); conditions: compound 1 μM, 5 μM or 25 μM for one hour, then 2 mM Potassium Arsenate 1 hour; confocal fluorescence imaging; FIGS. 5-10
Protocol: as §1, with “In brief, three” for “Three”, “lines. […]” for “lines.”
as §2
as §3, with “40× (primary screen) and 20× (potency testing)” for “40×”, “Heidelberg),” for “Heidelberg) and”, “7:R100); or, for potency testing, data were analyzed using Harmony (PerkinElmer, Waltham MA) and Vault (Collaborative Drug Discovery, Burlingame CA).” for “7:R100).”
In addition, z-scores were calculated for every test compound using the formula: z=(x−x)/S where x is the mean of the sample, and S is the standard deviation of the sample.

[3] = system: stress granules of stressed HeLa cells carrying BAC FUS-GFP; assay: Dose-response / potency testing for FUS, eIF3 and G3BP1 in stress granules (FIG. 11); conditions: 0.0021-30 μM, number of cytoplasmic drops per cell, four parameter logistic fit
Excerpt: FIG. 11 is a plot of dose-response curves for FUS, eIF3, and G3BP1 in stress granules of stressed HeLa cells carrying BAC FUS-GFP treated with YM155.
The methods used in this example were similar to those discussed in Example 1. In brief, three cell lines (HeLa Kyoto, HeLa comprising a bacterial artificial chromosome (BAC) encoding FUS-GFP, and induced pluripotent stem cells (iPS) expressing FUS-GFP) were separately grown in culture. 1200 compounds from a compound library were exposed individually at concentrations of 1 μM, 5 μM, or 25 μM to one of the cell lines for one hour. For some compounds, this procedure was repeated for one or both of the other cell lines. […]
A spinning disk confocal microscope was used to acquire images of the samples using confocal fluorescence at 405/488/561/640 nm. […] The exposure times were adjusted to the fluorescence emission intensity specific for each label. […] Image acquisition was automated, and the resulting data were analyzed using KNIME (Berthold et al., 2008, Data Analysis, Machine Learning and Applications. Studies in Classification, Data Analysis, and Knowledge Organization. Springer, Berlin, Heidelberg), CellProfiler (Carpenter et al., 2006, Genome Biol 7:R100); or, for potency testing, data were analyzed using Harmony (PerkinElmer, Waltham MA) and Vault (Collaborative Drug Discovery, Burlingame CA). […]

Compound | Selective and Non-Selective Condensate Disrupters (selectivity of exclusion of FUS, eIF3, G3BP1 from stress granules) [1] | Selectivity (Selective and Non-Selective Condensate Disrupters) [2] | potency (similar to IC50) for exclusion of a specific protein from stress granules relative to others [3]
COc1cc(N2CCC(N)CC2)ccc1Nc1ncc(Cl)c(-c2c[nH]c3ccccc23)n1 [AZD3463] | FUS-selective | – | –
COc1cc(CCc2cc(NC(=O)c3ccc(N4C[C@@H](C)N[C@@H](C)C4)cc3)n[nH]2)cc(OC)c1 [AZD4547] | Non-selective | – | –
CNC(=O)CN1CCC(Oc2cc3c(Nc4cccc(Cl)c4F)ncnc3cc2OC)CC1 [AZD8931] | eIF3-selective | – | –
CC1(C)CCC2=C(O1)c1ccccc1C(=O)C2=O [Beta-Lapachone] | eIF3-selective | eIF3-selective | –
Cn1cc(C2=C(c3cn(CCCSC(=N)N)c4ccccc34)C(=O)NC2=O)c2ccccc21 [Bisindolylmaleimide IX] | – | eIF3-selective | –
C[C@H]1CCC/C=C/[C@@H]2C[C@H](O)C[C@H]2[C@H](O)/C=C/C(=O)O1 [Brefeldin A] | FUS-selective | – | –
COc1cc2c(Oc3ccc4[nH]c(C)cc4c3F)ncnc2cc1OCCCN1CCCC1 [Cediranib] | – | eIF3 and FUS- selective | –
Cc1cc2cc3ccc(N(C)C)cc3nc2cc1N [Coriphosphine O] | – | FUS-selective | –
O=C(O)CCc1ccc(NCc2cccc(Oc3ccccc3)c2)cc1 [GW9508] | FUS-selective | – | –
O=C(c1ccc(F)cc1)C1CCN(CCn2c(=O)[nH]c3ccccc3c2=O)CC1 [Ketanserin] | FUS-selective | – | –
NC(=O)CCCCC1CCSS1 (stereo not drawn) [Lipoamide] | Non-selective | Non-selective | –
Cc1ccc(NC(=O)c2ccc(CN3CCN(C)CC3)cc2)cc1Nc1nc(-c2cccnc2)cs1 [Masitinib] | – | FUS protein and iPSC cell selective | –
COc1ncc(-c2ccc3nccc(-c4ccnnc4)c3c2)cc1NS(=O)(=O)c1ccc(F)cc1F [Omipalisib] | Non-selective | – | –
COc1ccc(-c2cc3c(C)nc(N)nc3n(C3CCC(OCCO)CC3)c2=O)cn1 (stereo not drawn) [PF-04691502] | – | Non-selective | –
Cc1cnc(Nc2ccc(N3CCN(C)CC3)cc2)nc1Nc1cccc(S(=O)(=O)NC(C)(C)C)c1 [TG101209] | Non-selective | Non-selective | –
COCCn1c2c([n+](Cc3cnccn3)c1C)C(=O)c1ccccc1C2=O.[Br-] [YM155 (Sepantronium Bromide), Sepantronium Bromide] | eIF3-selective | eIF3-selective | exclusion of eIF3 at lower concentration of compound relative to FUS and G3BP1
